Values quoted from earlier work, collected in publication PMC2574912 (Life sciences, 2008).

Legend:
[1] = system: non-AT1, non-AT2 binding site in rat brain; conditions: sulfhydryl reducing agents, ref Karamyan and Speth, 2007
[2] = system: AT-1 angiotensin receptor; conditions: presence of PCMB; ref Karamyan and Speth, 2007
AT2 receptor = conditions: PCMB; ref Karamyan, Speth unpublished observations

Effect on binding of 125I-Ang II to the non-AT1, non-AT2 binding site [1] | Structure (SMILES) | Effect on AT1 receptor binding [2] | Effect on AT2 receptor binding (AT2 receptor)
inhibit the binding | O[C@@H](CS)[C@@H](O)CS (racemic) [dithiothreitol] | – | –
– | O=C(O)c1cc[c]([Hg][Cl])cc1 [PCMB, parachloromercuribenzoate] | inactivated | not inhibited
inhibit the binding | OCCS [β-mercaptoethanol] | – | –
